Laboratory results reported in patent US20230093861A1, “RAPAMYCIN ANALOGS AS MTOR INHIBITORS” (Revolution Medicines, Inc., priority 2017, published 2023).
Where two headings read alike, the source gives them in different places.

Experiments:
P-Akt (S473) = assay: Cell based AlphaLISA assay, inhibition of P-Akt (S473) (mTORC2 substrate phosphorylation) in MDA-MB-468 cells; conditions: Homo sapiens, two to four hours at 37° C.
How it was run: (§1)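 Compound incubation stopped by buffer removal plus kit lysis buffer; lysates processed per kit protocol; Alpha signal read in duplicate. IC50: normalized regression fit, control-based normalization.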

P-4E-BP1 (T37/46) = assay: Cell based AlphaLISA assay, inhibition of P-4E-BP1 (T37/46) (mTORC1 substrate phosphorylation) in MDA-MB-468 cells; conditions: Homo sapiens, two to four hours at 37° C.
How it was run: as §1

P-P70S6K (T389) = assay: Cell based AlphaLISA assay, inhibition of P-P70S6K (T389) (mTORC1 substrate phosphorylation) in MDA-MB-468 cells; conditions: Homo sapiens, 4 h, two to four hours at 37° C.
How it was run: as §1

[1] = AlphaLISA, read-out: pIC50 for Inhibition of mTORC1 and mTORC2 Substrate Phosphorylation, P-P70S6K-(T389) (converted)
[2] = MDA-MB-468, 4 h, AlphaLISA, read-out: pIC50 for Inhibition of mTORC1 and mTORC2 Substrate Phosphorylation, p-AKT 1/2/3 -(S473) (converted)
[3] = MDA-MB-468, 4 h, AlphaLISA, read-out: pIC50 for Inhibition of mTORC1 and mTORC2 Substrate Phosphorylation, P-4E-BP1-(T37/46) (converted)

Structure (SMILES)	IC50 (P-Akt (S473); 4 h, AlphaLISA, read-out: pIC50 for Inhibition of mTORC1 and mTORC2 Substrate Phosphorylation, p-AKT 1/2/3 -(S473) (converted))	IC50 (P-4E-BP1 (T37/46); 4 h, AlphaLISA, read-out: pIC50 for Inhibition of mTORC1 and mTORC2 Substrate Phosphorylation, P-4E-BP1-(T37/46) (converted))	IC50 (P-P70S6K (T389); [1])	IC50 (P-Akt (S473); [2])	IC50 (P-4E-BP1 (T37/46); [3])	IC50 (P-Akt (S473); MDA-MB-468, 4 h, AlphaLisa SureFire Ultra, read-out: IC50 for Inhibition of mTORC1 and mTORC2 Substrate Phosphorylation, p-AKT1/2/3-(S473))	IC50 (P-4E-BP1 (T37/46); MDA-MB-468, 4 h, AlphaLisa SureFire Ultra, read-out: IC50 for Inhibition of mTORC1 and mTORC2 Substrate Phosphorylation, p-4E-BP1-(T37/46))	IC50 (P-P70S6K (T389); AlphaLisa SureFire Ultra, read-out: IC50 for Inhibition of mTORC1 and mTORC2 Substrate Phosphorylation, p-P70S6K-(T389))
CO[C@H]1C[C@@H]2CC[C@@H](C)[C@@](O)(O2)C(=O)C(=O)N2CCCC[C@H]2C(=O)O[C@H]([C@H](C)C[C@@H]2CC[C@@H](OCCCCc3cn(CCOCCOCCOCCOCCOCCC(=O)NCCCCn4nc(-c5ccc6oc(N)nc6c5)c5c(N)ncnc54)nn3)[C@H](OC)C2)CC(=O)[C@H](C)/C=C(\C)[C@@H](O)[C@@H](OC)C(=O)[C@H](C)C[C@H](C)/C=C/C=C/C=C/1C [Example 2]	31.6 to 1000 nM	3.16 to 31.6 nM	< 1 nM					
CCO[C@@H]1C[C@@H]([C@H](C)C[C@@H]2CC[C@H](n3cc(COC(=O)NCCOCCOCCOCCC(=O)NCCOCCOCCC(=O)NCCCCn4nc(-c5ccc6oc(N)nc6c5)c5c(N)ncnc54)nn3)[C@H](OC)C2)OC(=O)[C@@H]2CCCCN2C(=O)C(=O)[C@]2(O)O[C@@H](CC[C@H]2C)C[C@H](OC)/C(C)=C/C=C/C=C/[C@@H](C)C[C@@H](C)C(=O)[C@H](OC)[C@H](O)/C(C)=C/[C@H]1C [Example 147]			10 to 1000 nM	> 1000 nM	31.6 to 1000 nM			
CO[C@H]1C[C@@H]2CC[C@@H](C)[C@@](O)(O2)C(=O)C(=O)N2CCCC[C@H]2C(=O)O[C@H]([C@H](C)C[C@@H]2CC[C@@H](OCc3cccc(-c4cnc(N5CCN(S(=O)(=O)CCc6cn(CCOCCOCCC(=O)NCCCCn7nc(-c8ccc9oc(N)nc9c8)c8c(N)ncnc87)nn6)CC5)nc4)c3)[C@H](OC)C2)CC(=O)[C@H](C)/C=C(\C)[C@@H](O)[C@@H](OC)C(=O)[C@H](C)C[C@H](C)/C=C/C=C/C=C/1C [Example 28]			< 1 nM	3.16 to 31.6 nM	< 3.16 nM			
CO[C@H]1C[C@@H]2CC[C@@H](C)[C@@](O)(O2)C(=O)C(=O)N2CCCC[C@H]2C(=O)O[C@H]([C@H](C)C[C@@H]2CC[C@H](n3nncc3-c3cccc(-c4cnc(N5CCN(S(=O)(=O)CCc6cn(CCOCCOCCC(=O)NCCCCn7nc(-c8ccc9oc(N)nc9c8)c8c(N)ncnc87)nn6)CC5)nc4)c3)[C@H](OC)C2)CC(=O)[C@H](C)/C=C(\C)[C@@H](O)[C@@H](OC)C(=O)[C@H](C)C[C@H](C)/C=C/C=C/C=C/1C [Example 36]			< 1 nM	3.16 to 31.6 nM	3.16 to 31.6 nM			
CO[C@H]1C[C@@H]2CC[C@@H](C)[C@@](O)(O2)C(=O)C(=O)N2CCCC[C@H]2C(=O)O[C@H]([C@H](C)C[C@@H]2CC[C@H](n3cc(COC(=O)NCCOCCOCCOCCOCCC(=O)NCc4cnc(N5CCN(c6ncc(C(=O)NCCCCn7nc(-c8cc9cc(O)ccc9[nH]8)c8c(N)ncnc87)cn6)CC5)nc4)nn3)[C@H](OC)C2)CC(=O)[C@H](C)/C=C(\C)[C@@H](O)[C@@H](OC)C(=O)[C@H](C)C[C@H](C)/C=C/C=C/C=C/1C [Example 186]			< 1 nM	31.6 to 1000 nM	3.16 to 31.6 nM			
CO/N=C1/C[C@@H]([C@H](C)C[C@@H]2CC[C@H](n3cc(COC(=O)NCCOCCOCCOCCC(=O)NCCOCCOCCC(=O)NCCCCn4nc(-c5ccc6oc(N)nc6c5)c5c(N)ncnc54)nn3)[C@H](OC)C2)OC(=O)[C@@H]2CCCCN2C(=O)C(=O)[C@]2(O)O[C@@H](CC[C@H]2C)C[C@H](OC)/C(C)=C/C=C/C=C/[C@@H](C)C[C@@H](C)C(=O)[C@H](OC)[C@H](O)/C(C)=C/[C@H]1C [Example 151]			10 to 1000 nM	> 1000 nM	31.6 to 1000 nM			
CO[C@H]1C[C@@H]2CC[C@@H](C)[C@@](O)(O2)C(=O)C(=O)N2CCCC[C@H]2C(=O)O[C@H]([C@H](C)C[C@@H]2CC[C@H](n3cc(COC(=O)NCCOCCOCCC(=O)NCc4cnc(N5CCN(c6ncc(C(=O)NCCCCn7nc(-c8ccc9oc(N)nc9c8)c8c(N)ncnc87)cn6)CC5)nc4)nn3)[C@H](OC)C2)CC(=O)[C@H](C)/C=C(\C)[C@@H](O)[C@@H](OC)C(=O)[C@H](C)C[C@H](C)/C=C/C=C/C=C/1C [Example 181]			< 1 nM	3.16 to 31.6 nM	< 3.16 nM			
CO[C@H]1C[C@@H]2CC[C@@H](C)[C@@](O)(O2)C(=O)C(=O)N2CCCC[C@H]2C(=O)O[C@H]([C@H](C)C[C@@H]2CC[C@@H](O)[C@H](OC)C2)C[C@@H](OC)[C@H](C)/C=C(\C)[C@@H](O)[C@@H](OC)C(=NOCc2cn(CCOCCOCCOCCOCCOCCOCCC(=O)NCCCCn3nc(-c4ccc5oc(N)nc5c4)c4c(N)ncnc43)nn2)[C@H](C)C[C@H](C)/C=C/C=C/C=C/1C [Example 13]			1 to 10 nM	31.6 to 1000 nM	3.16 to 31.6 nM			
CC(C)n1nc(-c2ccc3oc(N)nc3c2)c2c(N)ncnc21 [MLN-128, reference compound]						3.7 nM	16 nM	1.4 nM
CO[C@H]1C[C@@H]2CC[C@@H](C)[C@@](O)(O2)C(=O)C(=O)N2CCCC[C@H]2C(=O)O[C@H]([C@H](C)C[C@@H]2CC[C@@H](O)[C@H](OC)C2)C[C@@H](O)[C@H](C)/C=C(\C)[C@@H](O)[C@@H](OC)C(=NOCc2cn(-c3cnc(N4CCN(c5ncc(C(=O)NCCOCCC(=O)NCCCCn6nc(-c7ccc8oc(N)nc8c7)c7c(N)ncnc76)cn5)CC4CO)nc3)nn2)[C@H](C)C[C@H](C)/C=C/C=C/C=C/1C (stereo partly drawn) [Example 194]			< 1 nM	> 1000 nM	> 1000 nM			
CO[C@H]1C[C@@H]2CC[C@@H](C)[C@@](O)(O2)C(=O)C(=O)N2CCCC[C@H]2C(=O)O[C@H]([C@H](C)C[C@@H]2CC[C@H](n3cc(COC(=O)NCCOCCOCCOCCC(=O)NCCOCCOCCC(=O)NCCCCn4nc(-c5cc6cc(O)ccc6[nH]5)c5c(N)ncnc54)nn3)[C@H](OC)C2)C/C(=N/OCc2ccccc2)[C@H](C)/C=C(\C)[C@@H](O)[C@@H](OC)C(=O)[C@H](C)C[C@H](C)/C=C/C=C/C=C/1C [Example 155]			> 1000 nM	> 1000 nM	> 1000 nM			
CO[C@H]1C[C@@H]2CC[C@@H](C)[C@@](O)(O2)C(=O)C(=O)N2CCCC[C@H]2C(=O)O[C@H]([C@H](C)C[C@@H]2CC[C@@H](O)[C@H](OC)C2)C[C@@H](OC)[C@H](C)/C=C(\C)[C@@H](O)[C@@H](OC)C(=NOCc2cn(CCOCCOCCOCCOCCOCCC(=O)NCCCCn3nc(-c4ccc5oc(N)nc5c4)c4c(N)ncnc43)nn2)[C@H](C)C[C@H](C)/C=C/C=C/C=C/1C [Example 12]			> 1000 nM	> 1000 nM	> 1000 nM			
COC(=O)N[C@H]1C[C@@H]2CC[C@@H](C)[C@@](O)(O2)C(=O)C(=O)N2CCCC[C@H]2C(=O)O[C@H]([C@H](C)C[C@@H]2CC[C@@H](OCCCCc3cn(CCOCCOCCOCCOCCOCCOCCOCCOCCC(=O)NCCCCn4nc(-c5cc6cc(O)ccc6[nH]5)c5c(N)ncnc54)nn3)[C@H](OC)C2)CC(=O)[C@H](C)/C=C(\C)[C@@H](O)[C@@H](OC)C(=O)[C@H](C)C[C@H](C)/C=C/C=C/C=C/1C [Example 71]			1 to 10 nM	> 1000 nM	3.16 to 31.6 nM			
CCO[C@@H]1C[C@@H]([C@H](C)C[C@@H]2CC[C@H](n3cc(COC(=O)NCCOCCOCCOCCC(=O)NCCOCCOCCOCCC(=O)NCCCCn4nc(-c5cc6cc(O)ccc6[nH]5)c5c(N)ncnc54)nn3)[C@H](OC)C2)OC(=O)[C@@H]2CCCCN2C(=O)C(=O)[C@]2(O)O[C@@H](CC[C@H]2C)C[C@H](OC)/C(C)=C/C=C/C=C/[C@@H](C)C[C@@H](C)C(=O)[C@H](OC)[C@H](O)/C(C)=C/[C@H]1C [Example 150]			10 to 1000 nM	> 1000 nM	31.6 to 1000 nM			
